From patent publication US6921530B1, “Low dose IL-2 for potentiation of immunity” (Cornell Research Foundation, Inc., priority 1999, dated 2005)
Where “and” joins values, the source holds several entries; their conditions need not be identical. Equal values may be shown once.

System: plasma HIV RNA
Experiment: Plasma HIV RNA (branched chain DNA assay) after cessation of PART with continued low-dose IL-2
Format: in vivo
Conditions: for Increasing HIV Dbl time: IL-2 250,000 U/m^2 daily continued; for Max. Decrease (log): peak to trough
Procedure: The parameters monitored throughout the study included the time to the onset of viremia, the rate of viremic increase, the peak plasma virus concentration and the rapidity and completeness of the disappearance of viremia.
Prior to the discontinuation of PART, at least 3 months of daily, low-dose (250,000 U/m^2) subcutaneous IL-2 (R-Met-HU IL2-Ala-125, Amgen, Thousand Oaks, Calif.) immuno-stimulatory therapy were administered as described in Jacobsen, E L et al., Proc Natl Acad Sci USA 93:10405-10 (1996). In addition, to ensure the safest possible immune parameters for the discontinuation of PART, IL-2 immuno-stimulation was continued after the anti-viral drugs were withdrawn. […] All subjects had undetectable plasma virus during this interval.
Subsequent to the discontinuation of PART, plasma HIV was monitored twice weekly. Plasma HIV RNA concentrations were determined on EDTA anti-coagulated plasma samples, which were frozen (−70° C.) within 3 hours of phlebotomy. Samples were assayed by Bayer Diagnostics, Emeryville, Calif. Lymphocyte subsets were determined on fresh blood samples by flow cytometry using subset-specific monoclonal antibodies and a FACSCaliber from Becton-Dickinson, San, Jose, Calif. by standard procedures according to the manufacturer. All subjects eventually experienced a relapse of viremia The onset of viremia in each subject was taken as t=day 1. The mean time interval until plasma virus once again became detectable was 19±3 (SEM) days (range 14-39 days). Once detectable, the plasma virus concentration increased progressively over 2.5 weeks, reaching a mean peak of 375,101±229,139 (SEM) (log10=5.15±0.21) HIV RNA molecules/ml. Thereafter, the virus concentration decreased progressively over the next 4-6 weeks, reaching an apparent trough defined as at least 4 successive measures of HIV RNA that varied less than 3-fold. By 6 weeks from the onset of the viremia, the mean virus concentration had decreased to 31,707±11,851 (SEM) (log10=4.21±0.19) HIV RNA molecules/ml, a drop from the peak viral concentration by an order of magnitude.

[1] = after cessation of PART, IL-2 continued, subject #1-9, mean
[2] = after cessation of PART, IL-2 continued, subject #1-9, mean, mean
[3] = second treatment interruption, 4 subjects

## Interleukin-2 [IL-2]
3 of 4 individuals
  peak plasma HIV RNA after the first interruption: 5.53±0.54 log10 HIV RNA molecules/ml
  peak plasma HIV RNA after the second interruption: 4.27±0.27 log10 HIV RNA molecules/ml
  peak plasma HIV RNA lower after second than first interruption: 1.26±0.14 log10 HIV RNA molecules/ml
After cessation of PART, subject #1-9, mean
  Increasing HIV Dbl time: 2.7 days and 1.3 days and 1.0 days and 2.0 days (2×) and 1.6 days (3×) and 1.2 days
After cessation of PART, subject #1-9, mean, mean
  Increasing HIV Dbl time: 1.6 days
[1]
  Decreasing HIV Time to Min.: 9 days and 28 days and 24 days and 7 days and 26 days (2×) and 10 days and 17 days and 18 days
  Increasing HIV Days to Peak: 28 days and 14 days (3×) and 21 days and 16 days (2×) and 18 days and 10 days
  Peak HIV #: 375,101±229,139 HIV RNA molecules/ml and 230,074 HIV RNA molecules/ml and 14059 HIV RNA molecules/ml and 40662 HIV RNA molecules/ml and 295942 HIV RNA molecules/ml and 160949 HIV RNA molecules/ml and 2185670 HIV RNA molecules/ml and 300203 HIV RNA molecules/ml and 375101 HIV RNA molecules/ml and 80910 HIV RNA molecules/ml and 230074 HIV RNA molecules/ml and 67442 HIV RNA molecules/ml
  Peak HIV (log): 5.15±0.21 log and (4.15) log and (4.61) log and (5.47) log and (5.21) log and (6.34) log and (5.48) log and (5.15) log and (4.91) log and (5.36) log and (4.83) log
  Trough HIV (log): 4.21±0.19 log and (3.96) log and (4.36) log and (4.69) log and (4.93) log and (4.97) log and (4.21) log and (3.68) log and (4.00) log and (3.36) log
After cessation of PART, IL-2 continued, subject #1-9, mean (by 6 weeks from onset of viremia)
  Trough HIV #: 31,707±11,851 HIV RNA molecules/ml and 9215 HIV RNA molecules/ml and 9180 HIV RNA molecules/ml and 22695 HIV RNA molecules/ml and 48562 HIV RNA molecules/ml and 85782 HIV RNA molecules/ml and 92901 HIV RNA molecules/ml and 31707 HIV RNA molecules/ml and 4741 HIV RNA molecules/ml and 10024 HIV RNA molecules/ml and 2266 HIV RNA molecules/ml
[2]
  Decreasing HIV Time to Min.: 18 days
  Increasing HIV Days to Peak: 17 days
After discontinuation of PART, 9 subjects, mean ± SEM and range
  time interval until plasma virus once again became detectable: 19 ± 3 days and 14 to 39 days
First 10 days after peak, IL-2 continued, subject #1-9, mean
  Decreasing HIV T ½: 84 ± 17 h and 182 h and 125 h and 132 h and 81.6 h and 38.4 h and 93.6 h and 84 h and 36 h and 43.2 h
Subject #1-9, mean
  Max. Decrease (log): 0.19 log and 0.65 log and 1.11 log and 0.52 log and 1.41 log and 0.51 log and 1.23 log and 1.36 log and 1.47 log
Subject #1-9, mean, mean
  Max. Decrease (log): 0.94 log
[3]
  latent period to detectable viremia: 14.5 ± 4.1 days
  rate of doubling (t½): 36 ± 7.2 h
Subject D3
  days plasma HIV RNA undetectable after discontinuation of PART: 39 days
  plasma HIV RNA after 98 days as % of the peak viral concentration: < 1%
  plasma HIV RNA after 98 days without PART: 1,686 HIV RNA molecules/ml
Subjects #1, 2, 3, 8
  mean magnitude of decline of plasma HIV, rapid rate subjects: 1.37±0.05 log10 HIV RNA molecules/ml
  t ½ of viral decline, subjects with rapid rate: 38.4 ± 2.4 h
Subjects #4, 5, 6, 7, 9
  magnitude of decline of plasma HIV, slower rate subjects: 0.59±0.15 log10 HIV RNA molecules/ml
  mean t ½ of viral decline, subjects with slow rate: 122 ± 17 h
